Each molecule was assayed against T1, Thromboxane-A synthase (Homo sapiens, UniProt P24557) (assay: Compound was tested for inhibitory activity against human platelet microsomal TXA2 synthase).
T1 sequence (P24557 whole entry): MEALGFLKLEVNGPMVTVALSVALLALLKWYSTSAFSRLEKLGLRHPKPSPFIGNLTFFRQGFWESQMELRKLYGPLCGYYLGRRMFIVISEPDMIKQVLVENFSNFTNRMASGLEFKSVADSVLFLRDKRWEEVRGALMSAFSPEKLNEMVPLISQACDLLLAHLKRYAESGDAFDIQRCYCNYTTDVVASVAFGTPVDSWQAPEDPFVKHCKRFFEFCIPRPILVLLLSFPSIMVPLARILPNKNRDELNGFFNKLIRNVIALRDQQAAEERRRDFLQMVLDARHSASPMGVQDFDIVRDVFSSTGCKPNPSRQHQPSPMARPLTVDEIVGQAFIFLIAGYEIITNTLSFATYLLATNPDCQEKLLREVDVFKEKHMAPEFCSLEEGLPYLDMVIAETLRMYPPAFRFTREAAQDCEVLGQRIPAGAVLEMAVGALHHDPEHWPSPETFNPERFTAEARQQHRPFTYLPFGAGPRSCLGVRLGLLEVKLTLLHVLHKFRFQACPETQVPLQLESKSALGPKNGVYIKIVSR
Molecule `COc1ccc(COCC(Cn2ccnc2)OCc2ccc(C(=O)O)cc2)cc1` (stereo unspecified) has an IC50 of 1.1 µM. `COc1ccc(COCC(Cn2ccnc2)OCc2ccc(C(=O)OCc3ccccc3)cc2)cc1` (stereo unspecified) showed an IC50 of 7.1 µM. `CCCCOC(=O)c1ccc(COC(COCc2ccc(OC)cc2)Cn2ccnc2)cc1` (stereo unspecified) showed an IC50 of 2 µM. For `CCOC(=O)c1ccc(COC(COCc2ccc(OC)cc2)Cn2ccnc2)cc1` (stereo unspecified), the IC50 was 5.3 µM.

These molecules were tested against T1, Thromboxane-A synthase (assay: Tested for inhibitory activity against intact human platelet TXA2 formation).
Type: functional
Work on `CCCOC(=O)c1ccc(COC(COCc2ccc(OC)cc2)Cn2ccnc2)cc1` (stereo unspecified) yielded an IC50 of 0.18 µM. Molecule `COC(=O)c1ccc(COC(COCc2ccc(OC)cc2)Cn2ccnc2)cc1` (stereo unspecified) has an IC50 of 1.26 µM. In the case of `COc1ccc(COCC(Cn2ccnc2)OCc2ccc(S(C)(=O)=O)cc2)cc1` (stereo unspecified), the IC50 is reported as 24.9 µM. For `COc1ccc(COCC(Cn2ccnc2)OCc2ccc(C(=O)Oc3ccccc3)cc2)cc1` (stereo unspecified), the IC50 was 0.56 µM. Molecule `CCOC(=O)c1ccc(COCC(Cn2ccnc2)OCc2ccc(OC)cc2)cc1` (stereo unspecified) has an IC50 of 3.6 µM. Work on `COc1ccc(COCC(Cn2ccnc2)OCc2ccc(C(N)=O)cc2)cc1` (stereo unspecified) yielded an IC50 of 6 µM. `COc1ccc(COCC(Cn2ccnc2)OCc2ccc3c(c2)COC3=O)cc1` (stereo unspecified) was tested, and the IC50 was 6.2 µM. Molecule `COc1ccc(COCC(Cn2ccnc2)OCc2ccc(SC)cc2)cc1` (stereo unspecified) has an IC50 of 6.4 µM. `COc1ccc(COCC(Cn2ccnc2)OCc2ccc(C(=O)O)cc2)cc1` (stereo unspecified) gave an IC50 of 6.7 µM. With `COc1ccc(COCC(Cn2ccnc2)OCc2ccc(C(=O)OC(C)C)cc2)cc1` (stereo unspecified) the IC50 was 1.61 µM. Work on `COc1ccc(COCC(Cn2ccnc2)OCc2ccc(C(=O)OCc3ccccc3)cc2)cc1` (stereo unspecified) yielded an IC50 of 1.49 µM. For `CCCCOC(=O)c1ccc(COC(COCc2ccc(OC)cc2)Cn2ccnc2)cc1` (stereo unspecified), the IC50 was 0.2 µM. `CCNC(=O)c1ccc(COC(COCc2ccc(OC)cc2)Cn2ccnc2)cc1` (stereo unspecified) was tested, and the IC50 was 12.4 µM. `COc1ccc(COCC(Cn2ccnc2)OCc2ccc(C(=O)N(C)C)cc2)cc1` (stereo unspecified) showed an IC50 of 1.94 µM. `CCCCN(C)C(=O)c1ccc(COC(COCc2ccc(OC)cc2)Cn2ccnc2)cc1` (stereo unspecified) showed an IC50 of 5.4 µM. `COc1ccc(COCC(Cn2ccnc2)OCc2ccc([S+](C)[O-])cc2)cc1` (stereo unspecified) gave an IC50 of 8.6 µM. For `CCCCCCCCOC(=O)c1ccc(COC(COCc2ccc(OC)cc2)Cn2ccnc2)cc1` (stereo unspecified), the IC50 was 21 µM. `CCOC(=O)c1ccc(COCC(Cn2ccnc2)OCc2ccc(C(=O)OCC)cc2)cc1` (stereo unspecified) showed an IC50 of 0.7 µM. Molecule `COc1ccc(COCC(Cn2ccnc2)OCc2ccc(OC)cc2)cc1` (stereo unspecified) has an IC50 of 9.9 µM. `CCOC(=O)c1cccc(COC(COCc2ccc(OC)cc2)Cn2ccnc2)c1` (stereo unspecified) gave an IC50 of 7.2 µM. In the case of `COc1ccc(COCC(Cn2ccnc2)OCc2ccc(C(=S)N(C)C)cc2)cc1` (stereo unspecified), the IC50 is reported as 12.4 µM. `CCOC(=O)c1ccc(COC(COCc2ccc(OC)cc2)Cn2ccnc2)cc1` (stereo unspecified) was tested, and the IC50 was 0.54 µM.
